Our source for the mass density values is the NIST ThermoML archive (doi:10.1016/j.jct.2015.04.021).

The nature of this series: xn = mol fraction of the nth substance listed. As to conditions: 101.3 kPa, Liquid, Pycnometric method.

Numbers after ± are expanded uncertainties.

What is called mass density is mass per unit of volume. As to `OCc1ccco1` [2-hydroxymethylfuran] + C[N+](C)(C)CCO.[Cl-], the mass density by setting is: (303.15 K, x1 = 0.75) 1131.8 ± 1.3 kg/m3; (303.15 K, x1 = 0.8) 1131.5 ± 1.3 kg/m3; (303.15 K, x1 = 0.833) 1130.9 ± 1.3 kg/m3; (313.15 K, x1 = 0.75) 1125.2 ± 1.3 kg/m3; (313.15 K, x1 = 0.8) 1124.3 ± 1.3 kg/m3; (313.15 K, x1 = 0.833) 1123.8 ± 1.3 kg/m3. In addition, the mass density is, setting by setting: (323.15 K, x1 = 0.75) 1118.6 ± 1.3 kg/m3; (323.15 K, x1 = 0.8) 1117.1 ± 1.3 kg/m3; (323.15 K, x1 = 0.833) 1116.6 ± 1.3 kg/m3; (333.15 K, x1 = 0.75) 1112 ± 1.3 kg/m3; (333.15 K, x1 = 0.8) 1109.9 ± 1.3 kg/m3; (333.15 K, x1 = 0.833) 1109.5 ± 1.3 kg/m3.

As for `CC(=O)CCC(=O)O` [4-oxopentanoic acid] + C[N+](C)(C)CCO.[Cl-], the mass density runs as follows: (303.15 K, x1 = 0.75) 1134.6 ± 1.1 kg/m3; (303.15 K, x1 = 0.8) 1134.1 ± 1.1 kg/m3; (303.15 K, x1 = 0.833) 1133.7 ± 1.1 kg/m3; (313.15 K, x1 = 0.75) 1127.6 ± 1.1 kg/m3; (313.15 K, x1 = 0.8) 1127.3 ± 1.1 kg/m3; (313.15 K, x1 = 0.833) 1127 ± 1.1 kg/m3. In addition, the mass density stood at 1120.9 ± 1.2 kg/m3 (323.15 K, x1 = 0.75); 1120.4 ± 1.2 kg/m3 (323.15 K, x1 = 0.8); 1120.2 ± 1.2 kg/m3 (323.15 K, x1 = 0.833); 1113.8 ± 1.2 kg/m3 (333.15 K, x1 = 0.75); 1113.1 ± 1.2 kg/m3 (333.15 K, x1 = 0.8); 1113 ± 1.2 kg/m3 (333.15 K, x1 = 0.833).
